One may read the IC50 as the concentration at which inhibition is half-maximal.

This note sets out measurements from patent US20250092065A1, “2-(INDAZOL-5-YL)-6-(PIPERIDIN-4-YL)-1,7-NAPHTHYRIDINE DERIVATIVES AND RELATED COMPOUNDS AS MODULATORS FOR SPLICING NUCLEIC ACIDS AND FOR THE TREATMENT OF PROLIFERATIVE DISEASES” (REMIX THERAPEUTICS INC., priority 2022, published 2025).

For experiment [1], the system named is Target C. In words: RT-qPCR canonical junction panel assay, Target C mRNA. The format is cell-based. The note with it: Table 4, read-out: Target C IC50 (decrease in CJ mRNA levels). A digest of the protocol: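 IC50 is the concentration giving 50% CJ decrease, from a 4-parameter logistic fit of percent response; response derived from ΔΔCt against housekeeper and DMSO over a fixed ΔCt window, with canonical exon-junction qPCR in compound-treated K562 or A673 cells.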
On the technique in general: Real-time PCR tracks product formation cycle by cycle.

Experiment [2] has as its system Target C. In words: HiBiT protein abundance assay, Target C (K562 HiBiT knock-in). It counts as cell-based, human. The note with it: HiBiT knock-in K562 cells, 24 hours, top dose 10 μM. A digest of the protocol:
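K562 HiBiT knock-in cells (10000/well) were treated 24 h at 37° C with a 10-point 3-fold dilution series (top 10 μM final, ≤0.25% DMSO). HiBiT luminescence was read after lytic LgBiT detection. Percent response used unmodified K562 and DMSO-treated knock-in controls, and IC50 came from a four-parameter fit at 50% of untreated.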
(The HiBiT peptide binds its large partner to form an active luciferase.)

Counter-ions that a name gives are not always drawn.

Regarding `CNC(=O)c1nc(-c2cc3cn(C)nc3c(F)c2O)nc2ccc(N3CCC(N4CCC4)CC3)cc12` [Compound 722, 6-[4-(azetidin-1-yl)piperidin-1-yl]-2-(7-fluoro-6-hydroxy-2-methylindazol-5-yl)-N-methylquinazoline-4-carboxamide], the concentration for half-maximal inhibition (IC50) in experiment [1] and in experiment [2] was 100 to 1000 nM throughout.
In the case of `Cc1cc(N2C[C@@H](C)N[C@@H](C)C2)cc2c(Cl)cc(-c3cc4cn(C)nc4c(F)c3O)nc12` [Compound 723, 5-{4-chloro-6-[(3R,5S)-3,5-dimethylpiperazin-1-yl]-8-methylquinolin-2-yl}-7-fluoro-2-methylindazol-6-ol], the IC50 in experiment [1] is 100 to 1000 nM; in experiment [2], < 100 nM.
Turning to `CNC(=O)c1nc(-c2cc3cn(C)nc3c(F)c2O)nc2ccc(N3CCNC4(CC4)C3)cc12` [Compound 728, 6-{4,7-diazaspiro[2.5]octan-7-yl}-2-(7-fluoro-6-hydroxy-2-methylindazol-5-yl)-N-methylquinazoline-4-carboxamide], the values for the IC50 in experiment [1] and in experiment [2] were 1000 to 10000 nM and 100 to 1000 nM, respectively.
As to `CNC(=O)c1nc(-c2cc3cn(C)nc3c(F)c2O)nc2ccc(N3CC[C@@H](NC)C3)cc12` [Compound 729, 2-(7-fluoro-6-hydroxy-2-methylindazol-5-yl)-N-methyl-6-[(3R)-3-(methylamino)pyrrolidin-1-yl]quinazoline-4-carboxamide], the IC50 in experiment [1] and in experiment [2] was < 100 nM in each case.
As to `C[C@@H]1CN(c2ccc3nc(-c4cc5cn(C)nc5c(F)c4O)nc(-c4nccs4)c3c2)C[C@H](C)N1` [Compound 732, 5-{6-[(3R,5S)-3,5-dimethylpiperazin-1-yl]-4-(1,3-thiazol-2-yl)quinazolin-2-yl}-7-fluoro-2-methylindazol-6-ol], the values for the IC50 in experiment [1] and in experiment [2] were > 10000 nM and 1000 to 10000 nM, respectively.
Take `C[C@@H]1CN(c2ccc3nc(-c4cc5cn(C)nc5c(F)c4O)nc(C(=O)NCCO)c3c2)C[C@H](C)N1` [Compound 737, 6-[(3R,5S)-3,5-dimethylpiperazin-1-yl]-2-(7-fluoro-6-hydroxy-2-methylindazol-5-yl)-N-(2-hydroxyethyl)quinazoline-4-carboxamide]: the IC50 in experiment [1] and in experiment [2] was 1000 to 10000 nM each time.
As for `CNC(=O)c1nc(-c2cc3cn(C)nc3cc2O)nc2ccc(N3CCC(N(C)C)CC3)cc12` [Compound 742, 6-[4-(dimethylamino)piperidin-1-yl]-2-(6-hydroxy-2-methylindazol-5-yl)-N-methylquinazoline-4-carboxamide], the concentration for half-maximal inhibition (IC50) in experiment [1] and in experiment [2] was > 10000 nM throughout.
In the case of `C[C@@H]1CN(c2ccc3nc(-c4cc5cn(C)nc5c(F)c4O)ncc3c2)C[C@H](C)N1` [Compound 743, 5-{6-[(3R,5S)-3,5-dimethylpiperazin-1-yl]quinazolin-2-yl}-7-fluoro-2-methylindazol-6-ol], the IC50 in experiment [1] and in experiment [2] was 1000 to 10000 nM each time.
For `C[C@H]1CN(c2ccc3nc(-c4cc5cn(C)nc5c(F)c4O)ncc3c2)C[C@H](C)N1` [Compound 744, 5-{6-[(3S,5S)-3,5-dimethylpiperazin-1-yl]quinazolin-2-yl}-7-fluoro-2-methylindazol-6-ol], the IC50 was 1000 to 10000 nM in experiment [1] and < 100 nM in experiment [2].
Taken in the same sequence, the figures for `C[C@@H]1CN(c2ccc3nc(-c4cc5cn(C)nc5c(F)c4O)ncc3c2)C[C@@H](C)N1` [Compound 745, 5-{6-[(3R,5R)-3,5-dimethylpiperazin-1-yl]quinazolin-2-yl}-7-fluoro-2-methylindazol-6-ol] were 1000 to 10000 nM and 100 to 1000 nM.
Taken in the same sequence, the figures for `CN[C@@H]1CCN(c2cc3c(Cl)cc(-c4cc5cn(C)nc5c(C)c4O)nc3cc2C)C1` [Compound 748, 5-{4-chloro-7-methyl-6-[(3R)-3-(methylamino)pyrrolidin-1-yl]quinolin-2-yl}-2,7-dimethylindazol-6-ol] were > 10000 nM and > 10000 nM.
Take `CN[C@H]1CCN(c2cc3c(Cl)cc(-c4cc5cn(C)nc5c(C)c4O)nc3cc2C)C1` [Compound 749, 5-{4-chloro-7-methyl-6-[(3S)-3-(methylamino)pyrrolidin-1-yl]quinolin-2-yl}-2,7-dimethylindazol-6-ol]: the values for the IC50 in experiment [1] and in experiment [2] were 1000 to 10000 nM and > 10000 nM, respectively.
On to `Cn1cc2cc(-c3ncc4cc(N5CCC(N6CCC6)CC5)ccc4n3)c(O)c(F)c2n1` [Compound 750, 5-{6-[4-(azetidin-1-yl)piperidin-1-yl]quinazolin-2-yl}-7-fluoro-2-methylindazol-6-ol], for which the IC50 in experiment [1] and in experiment [2] was 100 to 1000 nM each time.
With `C[C@@H]1CN(c2ccc3nc(-c4cc5cn(C)nc5cc4O)ncc3c2)C[C@H](C)N1` [Compound 751, 5-{6-[(3R,5S)-3,5-dimethylpiperazin-1-yl]quinazolin-2-yl}-2-methylindazol-6-ol hydrochloride], the IC50 in experiment [1] and in experiment [2] was > 10000 nM throughout.
In the case of `C[C@H]1CN(c2ccc3nc(-c4cc5cn(C)nc5cc4O)ncc3c2)C[C@H](C)N1` [Compound 752, 5-{6-[(3S,5S)-3,5-dimethylpiperazin-1-yl]quinazolin-2-yl}-2-methylindazol-6-ol], the IC50 in experiment [1] was > 10000 nM; in experiment [2], 100 to 1000 nM.
With `C[C@@H]1CN(c2ccc3nc(-c4cc5cn(C)nc5cc4O)ncc3c2)C[C@@H](C)N1` [Compound 753, 5-{6-[(3R,5R)-3,5-dimethylpiperazin-1-yl]quinazolin-2-yl}-2-methylindazol-6-ol], the figures for the IC50 in experiment [1] and in experiment [2] were > 10000 nM and 100 to 1000 nM, respectively.
For `CCN(CC)C1CCN(c2ccc3nc(-c4cc5cn(C)nc5c(F)c4O)ncc3c2)CC1` [Compound 756, 5-{6-[4-(diethylamino)piperidin-1-yl]quinazolin-2-yl}-7-fluoro-2-methylindazol-6-ol], in that order: 100 to 1000 nM and 100 to 1000 nM.
